Measurements from PubChem BioAssay (NCI).
Values joined by “and” are separate entries in the source; they are usually repeats but may differ in a detail not shown here. Equal values may be shown once.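 Dose response: 5 concentrations. Exposure: 48 h. Format: 96-well plates. Endpoint: linear interpolation; highest concentration if not reached. The concentration for 50% growth inhibition is given as GI50. The concentration for full growth arrest is given as TGI.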

Key:
Test in all cases: NCI-60 cell line screen, 48 h
PC-3 prostate = system: PC-3 prostate
SNB-19 CNS = system: SNB-19 CNS
OVCAR-8 ovarian = system: OVCAR-8 ovarian
SW-620 colon = system: SW-620 colon
HCT-116 colon = system: HCT-116 colon
OVCAR-3 ovarian = system: OVCAR-3 ovarian
SK-MEL-28 melanoma = system: SK-MEL-28 melanoma
SN12C renal = system: SN12C renal
CCRF-CEM leukemia = system: CCRF-CEM leukemia
HS 578T breast = system: HS 578T breast

| Compound | GI50 (PC-3 prostate) [µM] | TGI (PC-3 prostate) [µM] | GI50 (SNB-19 CNS) [µM] | TGI (SNB-19 CNS) [µM] | GI50 (OVCAR-8 ovarian) [µM] | TGI (OVCAR-8 ovarian) [µM] | GI50 (SW-620 colon) [µM] | TGI (SW-620 colon) [µM] | GI50 (HCT-116 colon) [µM] | TGI (HCT-116 colon) [µM] | GI50 (OVCAR-3 ovarian) [µM] | TGI (OVCAR-3 ovarian) | GI50 (SK-MEL-28 melanoma) [µM] | TGI (SK-MEL-28 melanoma) [µM] | GI50 (SN12C renal) [µM] | TGI (SN12C renal) [µM] | GI50 (CCRF-CEM leukemia) [µM] | TGI (CCRF-CEM leukemia) [µM] | GI50 (HS 578T breast) [µM] | TGI (HS 578T breast) [µM] |
| --- | --- | --- | --- | --- | --- | --- | --- | --- | --- | --- | --- | --- | --- | --- | --- | --- | --- | --- | --- | --- |
| CCOC(=O)c1cc2cc(NC(=O)c3cc4cc([N+](=O)[O-])ccc4n3C)ccc2n1C | 22.6 | 52.9 | 22.7 | > 100 | 49.5 | > 100 | 93.5 | > 100 | 14.6 | 30.3 | 31.7 | > 100 µM | 63.6 | > 100 | 16.3 | 46.5 | 7.94 | > 100 | 97.5 | > 100 |
| O=C(Nc1cccc2cccnc12)c1ccc(N2C(=O)[C@@H]3[C@H](C2=O)[C@@H]2C=C[C@H]3C2)cc1 | 25.1 | > 100 | 41.6 | > 100 | 26 | > 100 | 42 | > 100 | 35.8 | > 100 | 20.7 | > 100 µM | 35.2 | > 100 | 28.7 | > 100 | 30.1 | > 100 | 40.8 | > 100 |
| O=C(O)c1ccc(S(=O)(=O)N=Nc2c(O)[nH]c3ccccc23)cc1 |  | > 100 |  | > 100 |  | > 100 |  | > 100 |  | > 100 |  | > 100 µM |  | > 100 |  | > 100 |  | > 100 |  | > 100 |
| COc1cccc2c1cc([N+](=O)[O-])c1c(C(=O)O)cc3c(c12)OCO3 | 27.8 | > 100 | 33.4 | > 100 |  | > 100 | 28.2 | > 100 |  | > 80.6 | 26.1 | 71.2 µM and > 100 µM | 46.7 | > 100 | 48.7 | > 100 | 28.2 | > 100 | 36.3 | > 100 |
| O=C(Nc1cccc(C(F)(F)F)c1)c1cccc(NC2=C(Cl)C(=O)N(Cc3ccccc3)C2=O)c1 | 3.1 | 14.3 | 36.8 | > 100 | 15.7 | 66.1 | 38.4 | > 100 | 13.5 | 39.2 | 8 | > 100 µM | 45.1 | > 100 | 14.9 | > 100 | 1.87 | 51.6 | 43.8 | > 100 |
| CCCCCCCCCCCCOC1C(C(COC2OC(C(O)CN3CCCCC3)C3OC(C)(C)OC23)NC(=O)Nc2ccccc2)OC2OC(C)(C)OC21 (stereo not drawn) | 10.7 | 24.9 | 18.2 | 44.5 | 15.5 | 39.7 | 4.11 | 14.7 | 4.54 | 12.7 | 14.7 | 34.6 µM | 7.89 | 15.3 | 16 | 33.2 | 0.863 | 2.23 | 8.75 | 23.6 |
| CCN(Cc1nc2cc(C(F)(F)F)ccc2nc1-c1ccccc1)c1ccc(OC)c(OC)c1 | 7.33 | 22 | 24.6 | 50.4 | 1.51 | 18.7 | 16.6 | 36.5 | 11.1 | 23.2 | 13.1 | 26.5 µM | 25.2 | 76 | 14.9 | 29.6 | 4.74 | 24.7 | 11.4 | 30 |
| CCCC[P+](c1ccccc1)(c1ccccc1)c1ccccc1 | 1.16 | 68.3 | 3.6 | > 100 | 2.68 | > 100 | 3.46 | > 100 | 2.87 | > 100 | 1.13 | 23.3 µM | 28.1 | > 100 | 4.35 | > 100 | 1.72 | > 100 | 3.38 | 20.7 |
| CC(F)(F)c1cc(F)ccc1-c1sc2cc(O)ccc2c1Oc1ccc(/C=C/C(=O)O)cc1 | 7.7 | 24.7 | 7.28 | 20.2 | 12.2 | 69.1 | 8.56 | 24.9 | 8.48 | 22.1 | 8.81 | 20.9 µM | 5.79 | 18.9 | 14 | 46 | 6.68 | 94.4 | 4.89 | 32.8 |
| CS(=O)(=O)OCCN(CCOS(C)(=O)=O)c1ccc(C=Nc2ccc3oc(=O)ccc3c2)cc1 |  | 80.7 |  | 80.7 |  | 49.9 |  | > 83.1 |  | > 100 |  | 24.1 µM |  | 64.4 |  | > 70.5 |  | 31.8 |  | 92.1 |
| COC(=O)[C@@H](Cc1c[nH]c2ccccc12)NC(=O)/C=C/c1ccccc1 | 3.22 | 68.2 | 7.31 | > 100 | 3.6 | > 100 | 4.07 | > 100 | 3.36 | > 100 | 2.83 | 7.78 µM | 4.43 | > 100 | 4.49 | > 100 | 3.45 | > 100 | 1.81 | 7.88 |
| Oc1ccc(Br)cc1/C=N/NC(=S)NC12CC3CC(CC(C3)C1)C2 | 1.64 | 4.94 | 2.87 | 12.4 | 1.6 | 4.4 | 1.74 | 3.47 | 1.57 | 4.57 | 1.67 | 3.71 µM | 2.66 | 10.1 | 1.63 | 3.18 | 0.897 | 8.14 | 1.99 | 6.69 |
| CCn1c(-c2nonc2N)nc2c(C#CC(C)(C)O)nc(O[C@@H](CN)c3ccccc3)cc21 | 0.0858 | 9.94 | 0.236 | 3.24 | 0.244 | 2.59 | 0.119 | 3.17 | 0.121 | 2.61 | 0.0845 | 0.314 µM | 0.399 | 1.19 | 0.208 | 2.82 | 0.0554 | 5.16 | 0.0453 | 1.09 |
